This note sets out measurements from patent publication US9363996B2, “Compositions and method for blocking ethylene response in field crops using 3-(cy-clopropyl-l-enyl)-propanoic salt” (Yissum Research Development Company of the Hebrew …, priority 2009, dated 2016).

The test system of the test is wheat plants. Kind of test: Ethephon-induced chlorophyll degradation in wheat leaves, glumes and chaffs. The test is classed as in vivo, wheat (Triticum turgidum var. 'Gdera'). The conditions noted are these: for Ethephon-induced decrease in the content of chlorophyll: WS-CPD 45 μg mL^−1. As to the method: (1) Abscission—This is a very sensitive model system for studying the effects of plant hormones. Ethylene induces the process of abscission, while auxin delays it. In the laboratory the experimental system is based on plant organ explants, which include the abscission zone. Abscission is induced by exposure to ethylene and at the termination of the experiment the number of abscised organs, usually either leaf blades or petioles are counted and the fraction of abscission is calculated. In the case of fruit, the decrease in fruit retention force is analyzed. In cotton, when WS-CPD (the ethylene-action antagonist herein disclosed) is tested, the whole plants or explants are pretreated by spraying with the antagonist, dissolved in a phosphate buffer solution (10-20 mM, pH 7.0) including 0.1% commercially available Kinetic™ as surfactant, and left to incubate for a predetermined time, usually between 6 and 24 h. The plants or explants are then further exposed for 24 h to ethylene gas (5 to 20 μL L^−1). The plants or explants are then ventilated and incubated for the required time under controlled conditions. At the end of the experiment the percentage of abscission is determined. (2) Chlorophyll degradation—This is a standard model for studying senescence. Plant material (whole plants, excised leaves or leaf discs) are pretreated. In cotton, tobacco and wheat, when WS-CPD is tested, the whole plants or explants are pretreated by spraying with the antagonist, dissolved in phosphate buffer solution (10-20 mM, pH 7.0) including 0.1% commercially available Kinetic™ surfactant, and left to incubate for a predetermined time, usually between 6 and 241. The plants or explants are then further exposed for 24 h to ethylene gas (1 to 100 μL L^−1), or sprayed with Ethephon™ (wheat; 250 to 750 μL L^−1). The plants or explants are then ventilated and incubated for the required time under controlled conditions. At the end of the experiment a dimethylsulfoxide (DMSO) extract of the plant tissue is prepared, and the chlorophyll content of the extract is determined by spectrophotometric analysis. The chlorophyll content is reported either on a fresh, dry weight basis, or on a surface area basis. (3) Epinasty—This is also one of the classical methods for studying ethylene effects in plants. The extent of ethylene-induced epinasty of leaves is determined by measuring the change of the angle between the petiole and the stem shoot or blade. After exposure of the intact plant to ethylene, the upright grown leaves bend downward. The increase in the angle values (degrees) between petiole and the stem is used as a measure of the effect of the ethylene. When WS-CPD is tested on cotton and wheat plants, the whole plants are pretreated by spraying with the antagonist dissolved in phosphate buffer solution (10-20 mM, pH 7.6) including 0.1% Kinetic™ as surfactant, and left to incubate for a predetermined time, usually between 6 and 24 h. The plants are then further exposed for 24 h to ethylene gas (cotton, 5 to 10 μL L^−1), or sprayed with Ethephon™ (wheat, 250 to 750 μL L^−1). The plants are then ventilated and incubated for the required time under controlled conditions. The epinastic effect is expressed by measuring the degree values of the downward curvature between the blade and petiole (cotton, FIGS. 1-3) or between the blade and the stem (wheat, FIGS. 31 and 32). (4) Wheat Grain yield—This is a common test of the effects of exposure of monocot plants either to environmental stresses such as drought that induce senescence by increasing endogenous ethylene production. Excessive internal or external ethylene will accelerate senescence which will lead to reduced grain yield. In this project the intact plants were grown in the greenhouse up to the spike hading at milky stage I and II. The plants were then sprayed with the dissolved WS-CPD in phosphate buffer solution (10 mM, pH 7.6) including 0.1% Kinetic™ as surfactant. Young Cotton Seedlings […]

For the compound `O=C([O-])CCC1=CC1.[Na+]` [WS-CPD, 3-cyclopropyl-1-enyl-propanoic sodium salt], the “Ethephon-induced chlorophyll degradation in the glumes and chaffs” value (WS-CPD 62 μg mL^−1, Ethephon 250 μL L^−1) is reported as “completely reversed”. In addition, the “decrease of chlorophyll content in the flag leaf” value (WS-CPD 312 μg mL^−1, Ethephon 250 μL L^−1, milky stage I) is given as “almost completely antagonized”. Besides, the “chlorophyll decrease induced by Ethephon” value (WS-CPD 415 μg mL^−1, Ethephon 750 μL L^−1, both types of leaves, milky stage I) was “only slightly antagonized”. Besides, the “Ethephon-induced decrease of chlorophyll” value (WS-CPD 12 to 62 μg mL^−1, milky stage I, mainly flag leaf, also leaf II) is reported as “significantly reduced”. Besides, the “effect on chlorophyll in leaves treated with Ethephon” value (WS-CPD 15 to 135 μg L^−1 (so in the source), Ethephon 750 μL L^−1, milky stage II) is on record as “not effective”. In addition, where the note is “WS-CPD 15 to 135 μg L^−1 (so in the source), Ethephon 750 μL L^−1, milky stage II, insignificant”, the “decrease in the chlorophyll titer in the treated spike-chaffs” value is listed as 3%. In addition, the “Ethephon-induced decrease in the content of chlorophyll” value is, setting by setting: (chaffs, Ethephon 750 μL L^−1) “markedly antagonized”; (glumes, Ethephon 750 μL L^−1) “much less effective”. For the same compound, the “increase of chlorophyll content above control untreated plants” value by setting is: (chaffs, WS-CPD 62 μg mL^−1, Ethephon 250 μL L^−1) 10%; (glumes, WS-CPD 62 μg mL^−1, Ethephon 250 μL L^−1) 60%.
